Our source for the IC50 values is patent US8017612B2, “Piperazine compound and use thereof as a HCV polymerase inhibitor” (priority 2006, dated 2011).

pIC50: −log10 of the molar value.

Test [1] addresses T1, HCV polymerase (NS5B) type 1b (Hepatitis C virus genotype 1b, UniProt P26663).
T1 construct: a region encoding NS5B (J Virol 1991 March, 65(3), 1105-13, 544 amino acids after deletion of 47 amino acids on the C-terminal); 6xHis (C); made in house; host or cells: Escherichia coli
Description: Assay of enzyme (HCV polymerase) inhibitory activity, type 1b enzyme. It is filed as biochemical, HCV BK strain (type 1b). An outline of the steps: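 IC50 derived from [3H]UTP incorporation into TCA-insoluble RNA, compared with and without test compound. Reaction (25 °C, 60 min, Tris pH 7.5, 5 mM MgCl2): E. coli-expressed 1b NS5B Δ47 with His tag at 0.5 μg/ml, 5 μg/ml run-off substrate RNA, ATP/GTP/CTP 50 μM, UTP 2 μM.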

Test [2] addresses T2, HCV polymerase (NS5B) type 1a (Hepatitis C virus genotype 1a, UniProt P26664).
T2 construct: made in house; host or cells: Escherichia coli (by the 'similar method' of the 1b enzyme)
Kind of test: Assay of enzyme (HCV polymerase) inhibitory activity, type 1a enzyme. Type of test: biochemical, HCV type 1a (cloned from the blood of patients). An outline of the steps:
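Reactions ran 60 min at 25° C in 20 mM Tris-HCl pH 7.5, 5 mM MgCl2, 50 mM NaCl, holding genotype 1a NS5B (1.5 μg/ml, Δ47 C-terminus, 6His), substrate RNA 5 μg/ml, UTP 2 μM with tritiated UTP and other NTPs 50 μM. IC50 derived from incorporated radiolabel in filter-trapped RNA relative to uninhibited reaction.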

The mark [3] stands for this setting: HCV polymerase inhibitory activity (IC50), 1b, type 1b enzyme 0.5 μg/ml, 25° C., 60 min.
[4] abbreviates: HCV polymerase inhibitory activity (IC50), 1a, type 1a enzyme 1.5 μg/ml, 25° C., 60 min.
The mark [5] stands for this setting: HCV polymerase inhibitory activity IC50, 1b, type 1b enzyme.
Setting [6] is: HCV polymerase inhibitory activity IC50, 1a, type 1a enzyme.

For the compound `CC(C)(C)c1ccc(CNC(=O)[C@H]2CN(c3ccc(C(=O)O)nc3)CCN2S(=O)(=O)c2ccc(OC(F)(F)F)cc2)cc1` [Example 620, 5-[(R)-3-(4-tert-butyl-benzylcarbamoyl)-4-(4-trifluoromethoxy-benzenesulfonyl)-piperazin-1-yl]-pyridine-2-carboxylic acid], the pIC50 in test [1] (setting [3]) and in test [2] (setting [4]) was above 7.00 in each case.
As to `CN(C)c1ncc2sc(N3CCN(S(=O)(=O)c4ccc(OC(F)(F)F)cc4)[C@@H](C(=O)NCc4ccc(OC(F)(F)F)cc4)C3)nc2n1` [Example 945, (R)-4-(5-dimethylamino-thiazolo[4,5-d]pyrimidin-2-yl)-1-(4-trifluoromethoxy-benzenesulfonyl)-piperazine-2-carboxylic acid 4-trifluoromethoxy-benzylamide], the pIC50 in test [1] (setting [5]) and in test [2] (setting [6]) was above 7.00 each time.
Turning to `O=C(NCc1ccc(OC(F)(F)F)cc1)[C@H]1CN(c2nc3ccncc3s2)CCN1S(=O)(=O)c1ccc(OC(F)(F)F)cc1` [Example 768, (R)-4-thiazolo[5,4-c]pyridin-2-yl-1-(4-trifluoromethoxy-benzenesulfonyl)-piperazine-2-carboxylic acid 4-trifluoromethoxy-benzylamide], the pIC50 in test [1] (setting [5]) and in test [2] (setting [6]) was above 7.00 in each case.
Turning to `CCCc1ccc(CNC(=O)[C@H]2CN(C(C)=O)CCN2S(=O)(=O)c2ccc(OC(F)(F)F)cc2)cc1N` [Example 635, (R)-4-acetyl-1-(4-trifluoromethoxy-benzenesulfonyl)-piperazine-2-carboxylic acid 3-amino-4-propyl-benzylamide], the figures for the pIC50 in test [1] (setting [3]) and in test [2] (setting [4]) were 6.00 to 7.00 and below 6.00, respectively.
As to `CC(=O)N1CCN(S(=O)(=O)c2ccc(OC(F)(F)F)cc2)[C@@H](C(=O)NCc2csc(-c3cccs3)n2)C1` [Example 599, (R)-4-acetyl-1-(4-trifluoromethoxy-benzenesulfonyl)-piperazine-2-carboxylic acid (2-thiophen-2-yl-thiazol-4-ylmethyl)-amide], the values for the pIC50 in test [1] (setting [3]) and in test [2] (setting [4]) were below 6.00 and 6.00 to 7.00, respectively.
Regarding `CCCc1ccc(CNC(=O)[C@H]2CN(c3nc(Cl)c(C(=O)O)s3)CCN2S(=O)(=O)c2ccc(OC(F)(F)F)cc2)cc1` [Example 847, 4-chloro-2-[(R)-3-(4-propyl-benzylcarbamoyl)-4-(4-trifluoromethoxy-benzenesulfonyl)-piperazin-1-yl]-thiazole-5-carboxylic acid], the pIC50 in test [1] (setting [5]) and in test [2] (setting [6]) was above 7.00 throughout.
For `CC(=O)N1CCN(S(=O)(=O)c2ccc(C(C)C)cc2)C(C(=O)NCc2cccc(F)c2)C1` (centres unmarked) [Example 78, 4-acetyl-1-(4-isopropyl-benzenesulfonyl)-piperazine-2-carboxylic acid 3-fluoro-benzylamide], the pIC50 in test [1] (setting [3]) and in test [2] (setting [4]) was below 6.00 throughout.
For the compound `CC(C)(C)NC(=O)c1cnc(N2CCN(S(=O)(=O)c3ccc(OC(F)(F)F)cc3)[C@@H](C(=O)NCc3ccc(OC(F)(F)F)cc3)C2)cn1` [Example 853, (R)-4-(4-trifluoromethoxy-benzenesulfonyl)-3,4,5,6-tetrahydro-2H-[1,2′]bipyrazinyl-3,5′-dicarboxylic acid 5′-tert-butylamide 3-(4-trifluoromethoxy-benzylamide)], the pIC50 was 6.00 to 7.00 in test [1] (setting [5]) and below 6.00 in test [2] (setting [6]).
Regarding `Cc1nc(N2CCN(S(=O)(=O)c3ccc(C(F)(F)F)cc3)[C@@H](C(=O)NCc3ccc(C(C)C)cc3)C2)sc1C(=O)O` [Example 6, 2-[(R)-3-(4-isopropyl-benzylcarbamoyl)-4-(4-trifluoromethyl-benzenesulfonyl)-piperazin-1-yl]-4-methyl-thiazole-5-carboxylic acid], the pIC50 in test [1] (setting [3]) and in test [2] (setting [4]) was above 7.00 throughout.
Take `CC(C)c1ccc(CNC(=O)[C@H]2CN(c3ccc(C(=O)OC(C)(C)C)cn3)CCN2S(=O)(=O)c2ccc(C(F)(F)F)cc2)cc1` [Example 326, 6-[(R)-3-(4-isopropyl-benzylcarbamoyl)-4-(4-trifluoromethyl-benzenesulfonyl)-piperazin-1-yl]-nicotinic acid tert-butyl ester]: the pIC50 in test [1] (setting [3]) and in test [2] (setting [4]) was 6.00 to 7.00 throughout.
On to `CCCc1ccc(CNC(=O)[C@H]2CN(c3nc4cn[nH]c(=O)c4s3)CCN2S(=O)(=O)c2ccc(C(F)(F)F)cc2)cc1` [Example 820, (R)-4-(7-oxo-6,7-dihydro-thiazolo[4,5-d]pyridazin-2-yl)-1-(4-trifluoromethyl-benzenesulfonyl)-piperazine-2-carboxylic acid 4-propyl-benzylamide], for which the pIC50 in test [1] (setting [5]) and in test [2] (setting [6]) was above 7.00 throughout.
Regarding `O=C(NCc1ccc(OC(F)F)c(F)c1)[C@H]1CN(c2nc3nc(C4CC4)ncc3s2)CCN1S(=O)(=O)c1ccc(OC(F)(F)F)cc1` [Example 1073, (R)-4-(5-cyclopropyl-thiazolo[4,5-d]pyrimidin-2-yl)-1-(4-trifluoromethoxy-benzenesulfonyl)-piperazine-2-carboxylic acid 4-difluoromethoxy-3-fluoro-benzylamide], the pIC50 in test [1] (setting [5]) and in test [2] (setting [6]) was above 7.00 each time.
As for `CCC(F)(F)c1ccc(CNC(=O)[C@H]2CN(C(=O)Nc3nnc(C(=O)N4CCOCC4)s3)CCN2S(=O)(=O)c2ccc(OC(F)(F)F)cc2)cc1` [Example 497, (R)-4-(4-trifluoromethoxy-benzenesulfonyl)-piperazine-1,3-dicarboxylic acid 3-[4-(1,1-difluoro-propyl)-benzylamide] 1-{[5-(morpholine-4-carbonyl)-[1,3,4]thiadiazol-2-yl]-amide}], the pIC50 in test [1] (setting [3]) and in test [2] (setting [4]) was below 6.00 throughout.
Take `CCC(F)(F)c1ccc(CNC(=O)[C@H]2CN(C(=O)Cn3nnnc3C(C)C)CCN2S(=O)(=O)c2ccc(OC(F)(F)F)cc2)cc1` [Example 541, (R)-4-[2-(5-isopropyl-tetrazol-1-yl)-acetyl]-1-(4-trifluoromethoxy-benzenesulfonyl)-piperazine-2-carboxylic acid 4-(1,1-difluoro-propyl)-benzylamide]: the pIC50 in test [1] (setting [3]) and in test [2] (setting [4]) was 6.00 to 7.00 throughout.
Consider `O=C(O)c1cccc2nc(N3CCN(S(=O)(=O)c4ccc(OC(F)(F)F)cc4)[C@@H](C(=O)NCc4ccc(OC(F)(F)F)cc4)C3)cnc12` [Example 780, 2-[(R)-4-(4-trifluoromethoxy-benzenesulfonyl)-3-(4-trifluoromethoxy-benzylcarbamoyl)-piperazin-1-yl]-quinoxaline-5-carboxylic acid], for which the pIC50 was above 7.00 in test [1] (setting [5]) and 6.00 to 7.00 in test [2] (setting [6]).
`CCCc1ccc(CNC(=O)[C@H]2CN(c3nc4c(C(=O)O)cccc4s3)CCN2S(=O)(=O)c2ccc(CC)cc2)cc1` [Example 818, 2-[(R)-4-(4-ethyl-benzenesulfonyl)-3-(4-propyl-benzylcarbamoyl)-piperazin-1-yl]-benzothiazole-4-carboxylic acid]: the pIC50 in test [1] (setting [5]) and in test [2] (setting [6]) was above 7.00 in each case.
On to `COc1cccc(CNC(=O)C2CN(C(C)=O)CCN2S(=O)(=O)c2ccc(C(C)C)cc2)c1` (centres unmarked) [Example 51, 4-acetyl-1-(4-isopropyl-benzenesulfonyl)-piperazine-2-carboxylic acid 3-methoxy-benzylamide], for which the pIC50 in test [1] (setting [3]) and in test [2] (setting [4]) was below 6.00 throughout.
As to `CCCc1ccc(CNC(=O)[C@H]2CN(c3cnc(NS(C)(=O)=O)cn3)CCN2S(=O)(=O)c2ccc(OC(F)(F)F)cc2)cc1` [Example 544, (R)-5′-methanesulfonylamino-4-(4-trifluoromethoxy-benzenesulfonyl)-3,4,5,6-tetrahydro-2H-[1,2′]bipyrazinyl-3-carboxylic acid 4-propyl-benzylamide], the negative-log IC50 (pIC50) in test [1] (setting [3]) and in test [2] (setting [4]) was above 7.00 in each case.
As for `CCC(F)(F)c1ccc(CNC(=O)[C@H]2CN(C(=O)Cn3cnnn3)CCN2S(=O)(=O)c2ccc(OC(F)(F)F)cc2)cc1` [Example 464, (R)-4-(2-tetrazol-1-yl-acetyl)-1-(4-trifluoromethoxy-benzenesulfonyl)-piperazine-2-carboxylic acid 4-(1,1-difluoro-propyl)-benzylamide], the pIC50 in test [1] (setting [3]) and in test [2] (setting [4]) was above 7.00 throughout.
In the case of `CC(C)c1ccc(CNC(=O)[C@H]2CN(c3ncn[nH]3)CCN2S(=O)(=O)c2ccc(C(F)(F)F)cc2)cc1` [Example 373, (R)-4-(2H-[1,2,4]triazol-3-yl)-1-(4-trifluoromethyl-benzenesulfonyl)-piperazine-2-carboxylic acid 4-isopropyl-benzylamide], the pIC50 in test [1] (setting [3]) was 6.00 to 7.00; in test [2] (setting [4]), below 6.00.
Take `CC(=O)N1CCN(S(=O)(=O)c2ccc(OC(F)(F)F)cc2)[C@@H](C(=O)NCc2cnc(C)cn2)C1` [Example 719, (R)-4-acetyl-1-(4-trifluoromethoxy-benzenesulfonyl)-piperazine-2-carboxylic acid (5-methyl-pyrazin-2-ylmethyl)-amide]: the pIC50 in test [1] (setting [5]) and in test [2] (setting [6]) was below 6.00 throughout.
With `CC(=O)N1CCN(S(=O)(=O)c2ccc(C(C)C)cc2)[C@@H](C(=O)NCCN2CCOCC2)C1` [Example 403, (R)-4-acetyl-1-(4-isopropyl-benzenesulfonyl)-piperazine-2-carboxylic acid (2-morpholin-4-yl-ethyl)-amide], the pIC50 in test [1] (setting [3]) and in test [2] (setting [4]) was below 6.00 each time.
